From patent publication US20110294843A1, “ADMINISTRATION SCHEME OF POLAR OPIOID METABOLITES FOR POST-OPERATIVE PAIN MANAGEMENT” (PAION UK Limited, priority 2008, published 2011) come the findings set out here.

Data set [1] deals with patients following major abdominal surgery. The data set can be described thus: M6G022 study: analgesic efficacy and tolerability of M6G and morphine following major abdominal surgery. The method, then:
Pain relief, nausea and emesis were recorded for 24 to 48 hours after start of the patient controlled analgesia.
The study site personnel (with the exception of the pharmacy); representatives of the sponsoring company; and the organisation involved in monitoring, data management, or other aspects of the study were blinded to the study treatment. The use of midazolam, temazepam, zopiclone or other short-acting pre-operative anxiolytics was allowed. All patients received a standardised general anaesthetic consisting of propofol induction, with either isoflurane or sevoflurane maintenance. These inhalational agents are associated with a similar risk of PONV. Nitrous oxide was not allowed because of its emetic effects, and the risk of an imbalance in its use. An initial bolus of 1-3 μg/kg of fentanyl or 0.1-0.3 μg/kg of sufentanyl followed by further doses as required, was used for pre- and peri-operative analgesia. Post-operative analgesia was provided by the study drug.
The investigator could administer up to 5 ml of PCA study drug, on no more than two occasions in each 24 hour post-operative period, as rescue medication if the patient was in uncontrolled pain. […] The patients stayed on PCA for a minimum of 24 hours following surgery, but could continue up to 48 hours if clinically indicated.
No prophylactic antiemetic was given, although iv ondansetron (4 mg/2 ml) was available if the patient experienced severe nausea, or immediately following emesis. If this was ineffective further doses of ondansetron; or other agents such as cyclizine, prochlorperazine or perphenazine; were allowed.
Pain intensity at rest was assessed by the patients using the VRS-11 scale at baseline, 15, 30 and 45 minutes and 1, 2, 4, 6, 9, 12, 15, 18, 21 and 24 hours after the start of PCA. A numerical scale was chosen because of the practical difficulty for post-operative patients of completing a visual analogue scale. If the patient remained on PCA after 24 hours, the pain scores were recorded every 8 hours up to 48 hours. In addition, at the end of the study the patients and observers were asked to assess the acceptability of their pain relief over the entire study using a 5 point rating global scale ranging from very poor (1) to excellent (5). […] The total consumption of study drugs was calculated.
Emesis risk factors of female gender; history of motion sickness or PONV; or smoking status were recorded at screening. Post-operative nausea was assessed by the patient using a 4 point ordinal scale (none, mild, moderate, severe) and occurrence of vomiting or dry retching recorded (yes/no; and if yes, the number of episodes) pre-operatively (Day −1), at baseline, and at 1, 2, 4, 6, 9, 12, 15, 18, 21, 24, 32, 40 and 48 hours after administration of the test analgesic. Nausea and vomiting were also combined in a single scoring system (postoperative nausea & vomiting, PONV), with an episode of vomiting or dry retching being scored as a 3 (severe) on the nausea scale.
Sedation was assessed using a combination of a binary question (sleepy, yes or no) and a 3 point ordinal scale (mild, moderate, severe) if the patient was sedated. All adverse events were recorded, along with concomitant medication use, with particular attention being paid to the use of anti-emetics.
The Intention to Treat (ITT) set of patients comprised all those who had been exposed to study medication at least once. This analysis set was the basis for the main efficacy and all safety and demographic analyses. Data were double entered using interactive verification into a CLINTRIAL database (Version 3.3.3, Phase Forward, Waltham, Mass., USA), and analysed using SAS (version 8.2, SAS Institute Inc., Cary, N.C., USA).

In data set [2] the test system is patients with pain treatment after surgery. The data set can be described thus: Meta analysis of four clinical studies with M6G pain treatment after surgery. The text has this: The four studies M6G001, M6G012, M6G015 and M6G022 are described in the following.
The following variables were included in the meta analysis:
Nausea (none, mild, moderate, severe)
Sedation (none, mild, moderate, severe)
Pain (none, mild, moderate, severe)

`CN1CC[C@]23c4c5ccc(O)c4O[C@H]2[C@@H](O)C=C[C@H]3[C@H]1C5` [Morphine, morphine]: the “mean totals of PCA demands” value in data set [1] (4-48 h) is 93.9; in data set [1] (early post-operative period (up to 4 hours)), 28.8. For the same compound, the “patients with sedation score recorded as severe” value in data set [1] (baseline) is recorded as 28.5%. In addition, in data set [1] (baseline (when given control of the PCA button)), the patients sedated is reported as 88.0%. In addition, in data set [1] (loading and recovery doses before PCA), the “dose required to achieve comfort initially” value is 14.4 mg/70 kg. In data set [2] (during first 24 hours), this compound gave a pain-free time of 9.0 to 10.9 h. Further, the “patients with moderate to severe sedation” value in data set [2] (human, in vivo, intravenous) came out at 81.4%. The figures for the “patients with moderate to severe pain” value in data set [2] (time window 0 to 6 hours) and in data set [2] (time window 6-24 hours) were 54.2% and 34.0%, respectively. For the same compound, the “patients with moderate to severe nausea” value in data set [2] (worst assessment) came out at 32.8%. The patients with vomiting in data set [2] (worst assessment) is listed as 36.5%.
